Experimental data reported in patent publication US11547651B2, “Ecofriendly biofilm-disrupting antimicrobial formulations, their development, and their uses” (Alira Health Boston LLC, priority 2017, dated 2023).
Where two headings read alike, the source gives them in different places.

Legend:
[1] = system: common oral care and wound care pathogens; assay: In vitro broad spectrum comparison against common oral care and wound care pathogens, silver as positive control; type: cell-based; settings: for broad spectrum antimicrobial activity compared with silver: in vitro, common oral care and wound care pathogens
Procedure: The MIC of the antimicrobials was from literature review as well as in vitro studies in our lab with the five major oral care and five major wound care pathogens. In the literature typically only one bacteria was tested, thus, it was difficult to ascertain whether the target was a broad spectrum antimicrobial. Oral care pathogens tested include: Fusobacterium nucleatum ss vincentii, Porphyromonas gingivalis, Prevotella intermedia, Aggregatibacter actinomycetemcomitans and Streptococcus mutans. Wound care pathogens included: Pseudomonas aeruginosa, Streptococcus pyogenes, Staphylococcus aureus, Enterococcus faecalis, and Proteus mirabilis. For the JMP® SAS analysis the antimicrobial scoring was based on the MIC in μg/ml using the following point scale: 5) 1-10 μg/ml, 4) 11-25 μg/ml, 3) 26-50 μg/ml, 2) 51-100 μg/ml, 1) >101, and ND for not determined.
In order to directly compare the top potential Ecofriendly antimicrobial candidates from the JMP SAS multivariate analysis described above, we examined how some of these compounds (aloesin, zinc pyrithione, cinnamon, lemongrass, manuka honey, peppermint, jojoba oil) performed against common oral care and wound care pathogens, using silver as a positive control. […] Zinc pyrithione is commonly used as an antibacterial and antifungal, is safe for human use, and is a common ingredient in dandruff shampoo.

[2] = system: aquatic and terrestrial organisms; settings: cited from earlier work
[3] = system: oral care and wound care pathogens; settings: background statement, organism not given; cited from earlier work
[4] = system: mice; settings: cited from earlier work
[5] = system: aquatic and terrestrial organisms; assay: Eco-friendliness from ECOTOX database records; settings: point scale 5 to 1 from number of ECOTOX references
Text: Eco-friendliness ratings were based on the number of references from the ECOTOX database. The scoring used the following point scale: 5) no toxicity to aquatic and terrestrial organisms, 4) 1-10 result records, 3) 11-25, 2) 26-50, 1) >51, and ND for not determined. Commonly used compounds such as Triclosan and silver were given an unacceptable Ecofriendly score of 1.

[6] = US EPA ecotoxicology database, aquatic environment

Row | Molecule | broad spectrum antimicrobial activity compared with silver [1] | number of records/references in the ECOTOX database [2] | microbial inhibitory concentration (MIC) [3] [µg/mL] | log reduction of most bacterial pathogens ([1]; planktonic bacterial and bacterial biofilms) [fold log reduction] | number of records/references in the ECOTOX database [2, 6] | LD50 [4] [mg/day] | Ecofriendly (ecotoxicology) score [5]
1 | CC(=O)Cc1cc(=O)c2c(C)cc(O)c([C@@H]3O[C@H](CO)[C@@H](O)[C@H](O)[C@H]3O)c2o1 [aloesin] | inferior to silver |  |  |  |  |  | 
2 | silver |  | 5,266 | 7.5 | 5 |  |  | 
3 | Oc1cc(Cl)ccc1Oc1ccc(Cl)cc1Cl [Triclosan, 5-Chloro-2-(2,4-dichlorophenoxy)phenol] |  |  | 125 |  | 513 | 1.5 | 
4 | zinc pyrithione | better than silver |  |  |  | 151 |  | 1 (>51)
